# Tests used:
# [1] = test system: M2; test: functional experiments on guinea pig atrium (GPA); assay type: cell-based
# Excerpt: a pA2 and pEC50 values from functional experiments on rabbit vas deferens, guinea pig atrium and guinea pig ileum.
# [2] = target: T1, M2 receptors (Rattus norvegicus, UniProt P10980); test: [3H]-NMS binding studies on M2 receptors from preparations of rat hearts
# T1 construct: M2 receptors from preparations of rat hearts; from tissue; host or cells: rat heart preparations
# T1 sequence (P10980 1-466): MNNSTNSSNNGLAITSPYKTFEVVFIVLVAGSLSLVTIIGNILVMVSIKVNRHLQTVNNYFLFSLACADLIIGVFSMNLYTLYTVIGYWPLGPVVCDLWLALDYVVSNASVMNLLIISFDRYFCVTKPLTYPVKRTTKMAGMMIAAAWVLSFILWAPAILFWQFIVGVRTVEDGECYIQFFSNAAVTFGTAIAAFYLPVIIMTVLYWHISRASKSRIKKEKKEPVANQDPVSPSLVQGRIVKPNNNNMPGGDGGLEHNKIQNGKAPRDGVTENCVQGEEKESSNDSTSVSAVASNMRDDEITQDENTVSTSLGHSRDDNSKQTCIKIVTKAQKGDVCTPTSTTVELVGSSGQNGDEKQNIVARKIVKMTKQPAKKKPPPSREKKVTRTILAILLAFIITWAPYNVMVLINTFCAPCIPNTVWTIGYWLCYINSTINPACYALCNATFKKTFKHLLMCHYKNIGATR
# Excerpt: c pKi values from [^3H]-NMS binding studies on M2 receptors from preparations of rat hearts
Structure (SMILES),PA2 GPA (M2) [1],Ki [2] [nM]
"C[N+]1(C)CC[C@H](OC(=O)[C@@](O)(c2ccccc2)C2CCCC2)C1 [Ia, (3S,2′S)-3-[(cyclopentylhydroxyphenylacetyl)oxy]-1,1-dimethylpyrrolidinium iodide]",7.92,13.2
"C[N+]1(C)CC[C@H](OC(=O)[C@](O)(c2ccccc2)C2CCCC2)C1 [Ib, (3S,2′R)-3-[(cyclopentylhydroxyphenylacetyl)oxy]-1,1-dimethylpyrrolidinium iodide]",–,0.182
"C[N+]1(C)CC[C@@H](OC(=O)[C@](O)(c2ccccc2)C2CCCC2)C1 [Ic, (3R,2′R)-3-[(cyclopentylhydroxyphenylacetyl)oxy]-1,1-dimethylpyrrolidinium iodide]",9.43,–
"C[N+]1(C)CC[C@@H](OC(=O)[C@@](O)(c2ccccc2)C2CCCC2)C1 [Id, (3R,2′S)-3-[(cyclopentylhydroxyphenylacetyl)oxy]-1,1-dimethylpyrrolidinium iodide]",8.69,1
